Literature values as cited in patent US20240041743A1, “SYNERGISTIC TETRAPEPTIDE COMBINATION” (BASF CORPORATION, priority 2017, published 2024).
Residues, ends and D or L forms follow the SMILES beside them.

Assays:
[1] = test system: skin texture, skin smoothing, firmness and elasticity; conditions: 3% Syniorage
[2] = test system: skin firmness; conditions: 3% Dermican

Compound | bi-daily application needed to improve skin texture, skin smoothing, and biomechanical properties of firmness and elasticity [1] [months] | bi-daily application needed to achieve an improvement of skin firmness [2] [months] | improvement on skin firmness after the first 2 months of application ([2]; bi-daily application, first 2 months)
CC(=O)N1CCC[C@H]1C(=O)N1CCC[C@H]1C(=O)N[C@@H](Cc1ccc(O)cc1)C(=O)N[C@@H](CC(C)C)C(=O)O [Syniorage™, N-Acetyl-Prolyl-Prolyl-Tyrosyl-Leucine] (Ac-PPYL-OH) | 2 |  | 
CC(=O)N[C@@H](CCC(N)=O)C(=O)N[C@@H](CC(=O)O)C(=O)N[C@H](C(=O)N[C@@H](Cc1c[nH]cn1)C(=O)O)C(C)C [Dermican™, N-Acetyl-Glutaminyl-Aspartyl-Valyl-Histidine] (Ac-QDVH-OH) |  | 4 | no improvement was observed
